Literature values in patent US20200306335A1, “A Dietary Composition Comprising Plant-Based Sources of Fatty Acids” (priority 2017, published 2020).

Tests used:
[1] = biological target: T1, 5 alpha-R Type 1 (Homo sapiens, UniProt P18405); settings: result in words, from a study cited in the background
T1 sequence (P18405 1-259): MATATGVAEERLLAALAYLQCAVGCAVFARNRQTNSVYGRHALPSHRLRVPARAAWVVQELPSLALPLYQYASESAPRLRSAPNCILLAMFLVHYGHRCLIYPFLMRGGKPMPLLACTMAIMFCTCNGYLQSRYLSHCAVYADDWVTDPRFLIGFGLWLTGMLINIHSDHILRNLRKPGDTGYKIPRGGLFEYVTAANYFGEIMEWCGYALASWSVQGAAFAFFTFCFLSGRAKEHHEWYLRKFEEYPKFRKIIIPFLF

[2] = biological target: T2, 5 alpha-R Type 2 (Homo sapiens, UniProt P31213); settings: result in words, from a study cited in the background
T2 sequence (P31213 1-254): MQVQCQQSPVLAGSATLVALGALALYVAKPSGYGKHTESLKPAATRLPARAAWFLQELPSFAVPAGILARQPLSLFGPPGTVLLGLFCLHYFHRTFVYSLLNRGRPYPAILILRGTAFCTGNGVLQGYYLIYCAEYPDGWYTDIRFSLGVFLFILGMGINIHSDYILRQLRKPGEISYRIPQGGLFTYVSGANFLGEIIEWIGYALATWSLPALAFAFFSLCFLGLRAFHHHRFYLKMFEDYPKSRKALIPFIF

Row | inhibition of 5 alpha-R Type 1 [1] | inhibition of 5 alpha-R Type 2 [2] | Structure (SMILES)
1 | active inhibitor | active inhibitor | CCCCCCCCCCCC(=O)O [Lauric acid, lauric acid]
2 | active inhibitors | little to no inhibitory activity | CCCCCCCC/C=C\CCCCCCCC(=O)O [Oleic, oleic acid]
3 |  | strongly inhibit | CCCCCCCCCCCCCC(=O)O [Myristic acid, myristic acid]
4 | active inhibitors | little to no inhibitory activity | CCCCC/C=C\C/C=C\CCCCCCCC(=O)O [linoleic acid]
